Assay results: PubChem BioAssay (NCI)
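GI50 = concentration required for 50% inhibition of growth. TGI denotes the concentration required for complete inhibition of growth.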

Experiments:
Experiment in all cases: NCI-60 cell line screen, 384-well format
SF-295 CNS = tested on: SF-295 CNS
KM12 colon = tested on: KM12 colon
M14 melanoma = tested on: M14 melanoma
PC-3 prostate = tested on: PC-3 prostate
NCI-H23 lung = tested on: NCI-H23 lung
MDA-MB-468 breast = tested on: MDA-MB-468 breast
HL-60(TB) leukemia = tested on: HL-60(TB) leukemia
RPMI-8226 leukemia = tested on: RPMI-8226 leukemia
DU-145 prostate = tested on: DU-145 prostate
IGROV1 ovarian = tested on: IGROV1 ovarian
786-0 renal = tested on: 786-0 renal
SF-539 CNS = tested on: SF-539 CNS
SF-268 CNS = tested on: SF-268 CNS
MCF7 breast = tested on: MCF7 breast
MOLT-4 leukemia = tested on: MOLT-4 leukemia
CAKI-1 renal = tested on: CAKI-1 renal
U251 glioblastoma = tested on: U251 glioblastoma
NCI-H460 NSCLC = tested on: NCI-H460 NSCLC
T-47D breast = tested on: T-47D breast
HCC-2998 colon = tested on: HCC-2998 colon
BT-549 breast = tested on: BT-549 breast
MDA-MB-231 breast = tested on: MDA-MB-231 breast
UACC-257 melanoma = tested on: UACC-257 melanoma
SK-OV-3 ovarian = tested on: SK-OV-3 ovarian
HOP-92 NSCLC = tested on: HOP-92 NSCLC
HT29 colon = tested on: HT29 colon
NCI-H226 lung = tested on: NCI-H226 lung
OVCAR-3 ovarian = tested on: OVCAR-3 ovarian
SR leukemia = tested on: SR leukemia
HCT-15 colon = tested on: HCT-15 colon
LOX IMVI melanoma = tested on: LOX IMVI melanoma
NCI-H322M lung = tested on: NCI-H322M lung
SW-620 colon = tested on: SW-620 colon
CCRF-CEM leukemia = tested on: CCRF-CEM leukemia
EKVX NSCLC = tested on: EKVX NSCLC
HS 578T breast = tested on: HS 578T breast
UO-31 renal = tested on: UO-31 renal
RXF 393 renal = tested on: RXF 393 renal
SN12C renal = tested on: SN12C renal
SK-MEL-5 melanoma = tested on: SK-MEL-5 melanoma
SNB-75 CNS = tested on: SNB-75 CNS
ACHN renal = tested on: ACHN renal
OVCAR-5 ovarian = tested on: OVCAR-5 ovarian
K-562 leukemia = tested on: K-562 leukemia
NCI/ADR-RES ovarian = tested on: NCI/ADR-RES ovarian
A549 NSCLC = tested on: A549 NSCLC
TK-10 renal = tested on: TK-10 renal

CNC(=O)c1ccccc1Nc1nc(Nc2ccc3c(c2OC)CCC[C@H](N2CCN(CCO)CC2)C3)ncc1Cl
GI50 (SF-295 CNS): 1710 nM
TGI (SF-295 CNS): 3110 nM
GI50 (KM12 colon): 955 nM
TGI (KM12 colon): 2630 nM
GI50 (M14 melanoma): 632 nM
TGI (M14 melanoma): 1850 nM
GI50 (PC-3 prostate): 2020 nM
TGI (PC-3 prostate): 5060 nM
GI50 (NCI-H23 lung): 673 nM
TGI (NCI-H23 lung): 2320 nM
GI50 (MDA-MB-468 breast): 384 nM
TGI (MDA-MB-468 breast): 1660 nM
GI50 (HL-60(TB) leukemia): 215 nM
TGI (HL-60(TB) leukemia): 551 nM
GI50 (RPMI-8226 leukemia): 1150 nM
TGI (RPMI-8226 leukemia): 2420 nM
GI50 (DU-145 prostate): 728 nM
TGI (DU-145 prostate): 2600 nM
GI50 (IGROV1 ovarian): 800 nM
TGI (IGROV1 ovarian): 2760 nM
GI50 ([…]-0 renal): 1160 nM
TGI (786-0 renal): 2410 nM
GI50 (SF-539 CNS): 1500 nM
TGI (SF-539 CNS): 2930 nM
GI50 (SF-268 CNS): 1550 nM
TGI (SF-268 CNS): 3020 nM
GI50 (MCF7 breast): 244 nM
TGI (MCF7 breast): 1520 nM
GI50 (MOLT-4 leukemia): 1280 nM
TGI (MOLT-4 leukemia): 2560 nM
GI50 (CAKI-1 renal): 511 nM
TGI (CAKI-1 renal): 1920 nM
GI50 (U251 glioblastoma): 1430 nM
TGI (U251 glioblastoma): 2830 nM
GI50 (NCI-H460 NSCLC): 1140 nM
TGI (NCI-H460 NSCLC): 2480 nM
GI50 (T-47D breast): 1280 nM
TGI (T-47D breast): 2710 nM
GI50 (HCC-2998 colon): 1210 nM
TGI (HCC-2998 colon): 2550 nM
GI50 (BT-549 breast): 1970 nM
TGI (BT-549 breast): 5200 nM
GI50 (MDA-MB-231 breast): 974 nM
TGI (MDA-MB-231 breast): 2280 nM
GI50 (UACC-257 melanoma): 327 nM
TGI (UACC-257 melanoma): 993 nM
GI50 (SK-OV-3 ovarian): 740 nM
TGI (SK-OV-3 ovarian): 2300 nM
GI50 (HOP-92 NSCLC): 985 nM
TGI (HOP-92 NSCLC): 2250 nM
GI50 (HT29 colon): 303 nM
TGI (HT29 colon): 1350 nM
GI50 (NCI-H226 lung): 686 nM
TGI (NCI-H226 lung): 2700 nM
GI50 (OVCAR-3 ovarian): 1180 nM
TGI (OVCAR-3 ovarian): 2770 nM
GI50 (SR leukemia): 18.6 nM
TGI (SR leukemia): 34.7 nM
GI50 (HCT-15 colon): 533 nM
TGI (HCT-15 colon): 1730 nM
GI50 (LOX IMVI melanoma): 655 nM
TGI (LOX IMVI melanoma): 1970 nM
GI50 (NCI-H322M lung): 806 nM
TGI (NCI-H322M lung): 2330 nM
GI50 (SW-620 colon): 727 nM
TGI (SW-620 colon): 2100 nM
GI50 (CCRF-CEM leukemia): 1860 nM
TGI (CCRF-CEM leukemia): 3320 nM
GI50 (EKVX NSCLC): 236 nM
TGI (EKVX NSCLC): 1320 nM
GI50 (HS 578T breast): 726 nM
TGI (HS 578T breast): 2030 nM
GI50 (UO-31 renal): 1080 nM
TGI (UO-31 renal): 2290 nM
GI50 (RXF 393 renal): 565 nM
TGI (RXF 393 renal): 1710 nM
GI50 (SN12C renal): 1400 nM
TGI (SN12C renal): 4340 nM
GI50 (SK-MEL-5 melanoma): 879 nM
TGI (SK-MEL-5 melanoma): 2150 nM
GI50 (SNB-75 CNS): 1430 nM
TGI (SNB-75 CNS): 3220 nM
GI50 (ACHN renal): 584 nM
TGI (ACHN renal): 2120 nM
GI50 (OVCAR-5 ovarian): 925 nM
TGI (OVCAR-5 ovarian): 3480 nM
GI50 (K-562 leukemia): 1430 nM
TGI (K-562 leukemia): 2820 nM
GI50 (NCI/ADR-RES ovarian): 2120 nM
TGI (NCI/ADR-RES ovarian): 4370 nM
GI50 (A549 NSCLC): 1080 nM
TGI (A549 NSCLC): 2330 nM
GI50 (TK-10 renal): 783 nM
TGI (TK-10 renal): 2480 nM
